Values joined by “and” are separate entries in the source; they are usually repeats but may differ in a detail not shown here. Equal entries are not always repeated. Where two headings read alike, the source gives them in different places.
Tests used:
[1] = target: T1, 5-HT2A receptor (Homo sapiens, UniProt P28223); test: FLIPR Ca2+ flux functional assay, agonist activity at 5-HT2A; assay type: cell-based
T1 construct: host or cells: HEK293
Description: (§1) Activity at 5-HT2A, 5-HT2B and 5-HT2C receptors was determined using a FLIPR Ca2+ flux assay at WuXi AppTec Co. Ltd. (Hong Kong) Discovery Biology Unit according to their standard protocols. Briefly, stably transfected cells expressing the receptor of interest (HEK293 for 5-HT2A and 5-HT2C; CHO-K1 for 5-HT2B) were grown and plated in a 384 well plate and incubated at 37° C. and 5% CO2 overnight. A 250 mM stock solution of probenecid in FLIPR calcium assay buffer (10 mL) was freshly prepared and combined with a fluorescent dye (Fluo-4 Direct) to give a final assay concentration of 2.5 mM. Reference compounds were 4-fold serially diluted and the screening compounds were 3-fold serially diluted in 100% DMSO for 10 points using Agilent Bravo, and 750 nL was added to a 384 well compound plate using Echo along with 30 μL assay buffer. The fluorescent dye was then added to the assay plate along with assay buffer to a final volume of 40 μL. The cell plate was incubated for 50 min at 37° C. and 5% CO2 and placed into the FLIPR Tetra along with the compound plate. 10 μL of references and compounds were then transferred from the compound plate into the cell plate and the fluorescent signal was read.

[2] = target: T2, 5-HT2B receptor (Homo sapiens, UniProt P41595); test: FLIPR Ca2+ flux functional assay, agonist activity at 5-HT2B; assay type: cell-based
T2 construct: host or cells: CHO-K1
T2 sequence (P41595 whole entry): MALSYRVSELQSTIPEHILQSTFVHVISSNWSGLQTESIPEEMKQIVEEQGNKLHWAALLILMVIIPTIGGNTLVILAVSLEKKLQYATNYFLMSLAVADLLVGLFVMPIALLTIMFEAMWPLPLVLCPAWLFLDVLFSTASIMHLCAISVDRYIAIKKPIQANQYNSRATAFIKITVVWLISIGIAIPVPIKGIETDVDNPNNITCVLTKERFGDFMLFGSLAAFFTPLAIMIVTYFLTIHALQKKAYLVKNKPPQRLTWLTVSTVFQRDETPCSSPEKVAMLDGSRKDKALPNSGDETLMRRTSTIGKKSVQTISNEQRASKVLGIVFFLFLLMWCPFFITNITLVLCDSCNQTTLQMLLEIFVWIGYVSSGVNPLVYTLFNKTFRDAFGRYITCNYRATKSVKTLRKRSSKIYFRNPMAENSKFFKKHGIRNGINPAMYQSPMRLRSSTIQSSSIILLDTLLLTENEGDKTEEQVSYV
Description: as §1

[3] = target: T3, 5-HT2C receptor (Homo sapiens, UniProt P28335); test: FLIPR Ca2+ flux functional assay, agonist activity at 5-HT2C; assay type: cell-based
T3 construct: host or cells: HEK293
T3 sequence (P28335 33-458): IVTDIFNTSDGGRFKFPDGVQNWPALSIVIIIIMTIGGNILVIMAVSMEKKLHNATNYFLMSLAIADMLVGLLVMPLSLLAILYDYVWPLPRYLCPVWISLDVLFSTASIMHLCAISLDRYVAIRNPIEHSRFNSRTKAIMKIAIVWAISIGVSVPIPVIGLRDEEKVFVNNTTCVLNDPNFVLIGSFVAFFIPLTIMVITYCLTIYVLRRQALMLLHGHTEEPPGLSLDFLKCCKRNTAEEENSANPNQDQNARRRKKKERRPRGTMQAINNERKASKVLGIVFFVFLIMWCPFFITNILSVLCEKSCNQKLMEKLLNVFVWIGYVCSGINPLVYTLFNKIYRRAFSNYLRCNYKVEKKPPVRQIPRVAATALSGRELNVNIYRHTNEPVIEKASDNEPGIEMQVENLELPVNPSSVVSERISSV
Description: as §1

[4] = In vivo pharmacokinetics: plasma and brain exposure after IP administration; set-up: species or system male C57BL/6 mice; conditions: for Kp at 0.083 h / Kp at 0.5 h: brain/plasma; for Cmax / Tmax / AUC(0-t): mouse, male C57BL/6 mice; for AUC(0-t): read-out: Plasma AUC0-last
Description: The systemic exposure of selected examples was studied in non-fasted male C57BL/6 mice weighing between 18.9-25.5 g. Mice had access to food and water ad libitum throughout the pre- and post-dose sampling period.
On the day of dosing, the formulation of each compound was prepared by dissolving solid compound in phosphate buffer saline (50 mM) using vortexing, creating colourless solutions (pH 6.4-6.5) for each compound.
Compounds were dosed to mice by IP injection (10 mL/kg dose volume via a 27G needle; n=9 mice per compound) and blood samples were collected at 5 and 30 min; 1, 2 and 4 h post-dose (n=3 mice per time point for each compound). A maximum of three blood samples were obtained from each mouse, with plasma samples being taken via submandibular bleed (approximately 120 μL). Once collected, blood samples were centrifuged immediately, supernatant plasma was removed, and stored at −80° C. until analysis by LCMS. In addition, at the 5 and 30 min and 4 h post-dose time points, the whole brain was rapidly removed from the carcass soon after the blood collection. The whole brains were blotted to remove excess blood, placed into pre-weighed polypropylene vials, and weighed. The brains were snap frozen in dry ice and subsequently stored frozen (−80° C.) until analysis.
Test compound standard solutions were diluted from a concentrated stock solution (32 mM in H2O) using 50% can in H2O (v/v) and a calibration curve was prepared in a matched matrix to the test samples.
Plasma: The plasma calibration curve was prepared by spiking aliquots of blank mouse plasma (25 μL) with test compound standard solutions (5 μL) and internal standard solution (5 μL of diazepam, 5 μg/mL in 50% acetonitrile in water). Test plasma samples (25 μL) were thawed, mixed, and then spiked with internal standard solution (5 μL). Plasma protein precipitation was performed by addition of acetonitrile (3-fold volume ratio) and thorough vortex mixing. Samples were centrifuged (RCF=9391×g) for 3 minutes and the supernatant (90 μL) was collected for analysis.
Tissue: Pre-weighed tissue samples (brain) were homogenised using a glass rod in buffer containing an EDTA/potassium fluoride solution (0.1 M/4 mg/mL) as a stabilisation cocktail to minimise the potential for ex vivo degradation (3 mL cocktail/g tissue). The tissue homogenate was briefly centrifuged (RCF=79×g) for 10 seconds to separate the foam layer before transferring an aliquot of the tissue homogenate (200 μL) to a fresh Eppendorf tube for sample extraction. Calibration standards were prepared by spiking blank brain homogenate (200 μL) with the solution standards (10 μL) and the internal standard (10 μL). Study samples were similarly prepared, except that acetonitrile (10 μL) was added instead of solution standards to maintain the same volume. Protein precipitation was carried out by the addition of a 3-fold volume of acetonitrile, followed by vortex mixing and centrifugation (RCF=9391×g) for 3 min to recover the supernatant for analysis.
Replicate analysis: Triplicate analytical replicate (ARs) samples were prepared similarly to the standards for each sample type at three concentrations (50, 500 and 2,000 ng/mL) and repeat injections of these ARs were included throughout the analytical run to assess assay performance. The extraction of the test compound from the standards and ARs were conducted as described above.

[5] = test system: C57BL/6J mice; test: Biotelemetry and head-twitch response (HTR) experiments; assay type: in vivo, Mice (C57BL/6J males); conditions: male C57BL/6 mice, SC, several doses (0.03 to 30 mg/kg)
Excerpt: Mice (C57BL/6J males) were purchased from the Jackson Laboratory (Bar Harbor, ME, USA) at 5-6 weeks of age and allowed at least 1-2 weeks to acclimate to the NIDA, Intramural Research Program (IRP), animal research facility in Baltimore, MD, USA. The animal facility is fully accredited by the Association for the Assessment and Accreditation of Laboratory Animal Care, and all procedures were approved by the NIDA IRP Animal Care and Use Committee. Mice were initially group housed 3-5 per cage during acclimation and housed in a 12 h light-dark cycle throughout the study, with lights on at 0700 h. Food and water were available ad libitum except during testing. Cohorts of 20-24 mice were used for each test drug. The mice were subjected to experimental testing once every 1-2 weeks for 2-3 months to complete dose-effect curves and antagonist experiments. A minimum of 7 days between treatments was utilized to avoid any tolerance to effects of repeated drug administration. All drug doses represent the weight of the salt dissolved in 0.9% saline vehicle. Mice were tested first in dose-response studies to assess the effects of each compound at doses from 0.03 to 30 mg/kg s.c. and were subsequently tested in antagonist reversal studies utilizing pretreatment with M100907 and WAY100635. All experiments were conducted from 0900 to 1700 local time during the light phase, as sensitivity of rodents to other tryptamine psychedelics is diurnal, with maximal HTR observed in the middle of the light phase. Experiments were run during the light phase also to avoid any potential influence of melatonin receptor activity on HTR as melatonin and related agonists are known to reduce HTR induced by DOI in rats. For each experiment, mice were acclimated to the testing room in their home cage for at least 1 h prior to experimental sessions. Behavioral test sessions were carried out in Tru Scan mouse locomotor arenas equipped with photobeam arrays (Coulbourn Instruments, Holliston, MA, USA), which were modified with cylindrical inserts and transparent floors useful in detecting mouse HTR.
Subcutaneous Temperature Transponder Implants. At least 1 week prior to the start of the experiments, mice received s.c. implanted temperature transponders (14×2 mm, model IPTT-300, Bio Medic Data Systems, Inc., Seaford, DE, USA) under brief isoflurane anesthesia. Mice were single housed post implant for the remainder of the study to protect the transponder from removal by cage mates. Temperature was determined noninvasively using a handheld receiver that is sensitive to signals emitted from the implanted transponders.
Prior to each experiment, mouse body weight and temperature were recorded. Mice were then placed into testing chambers for acclimation. In dose-response studies, after a brief 5 min acclimation, mouse body temperature was recorded for baseline measurement, mice received s.c. injection of test substance or vehicle, and animals were returned to the testing arena for 30 min. During the session, locomotor activity was monitored via photobeam tracking of movements in the horizontal plane to yield distance traveled in centimeter. HTR was monitored by the analysis of GoPro Hero Black 7 video recordings (120 frames per sec and 960p resolution) using a commercially available software package from Clever Sys Inc. (Reston, VA, USA). 82 Post-treatment body temperature values were also recorded, and temperature data are represented as change from pretreatment baseline.
In antagonist reversal experiments, mice received a s.c. injection of either receptor antagonists or vehicle and were returned to the testing chamber for 30 min. During this period, locomotor activity was monitored to examine the potential effects of antagonist treatment on general behavior or movement. At 30 min after antagonist administration, mice were given test drug or vehicle and returned to the chambers for an additional 30 min of video recording used for analyses. […]

[6] = 0.083 h, IP 10 mg/kg, individual mouse, 10 mg/kg
[7] = 0.083 h, IP 10 mg/kg, individual mouse, 10 mg/kg, read-out: Brain Parenchyma Concentration, Individual
[8] = 0.5 h, IP 10 mg/kg, individual mouse, 10 mg/kg
[9] = 0.5 h, IP 10 mg/kg, individual mouse, 10 mg/kg, read-out: Brain Parenchyma Concentration, Individual
[10] = 4 h, IP 10 mg/kg, individual mouse
[11] = male, C57BL/6, mouse, brain, ip, 10 mg/kg, 0.083 h, n = 3, read-out: Brain Parenchyma Concentration, Mean ± SD
[12] = male, C57BL/6, mouse, brain, ip, 10 mg/kg, 0.5 h, n = 3, read-out: Brain Parenchyma Concentration, Mean ± SD
[13] = male, C57BL/6, mouse, ip, 10 mg/kg, 0.083 h, individual mouse, read-out: B:P Ratio, Individual
[14] = male, C57BL/6, mouse, ip, 10 mg/kg, 0.5 h, n = 3, read-out: B:P Ratio, Mean ± SD
[15] = male, C57BL/6, mouse, plasma, ip, 10 mg/kg, 0.083 h, n = 3, read-out: Plasma Concentration, Mean ± SD
[16] = male, C57BL/6, mouse, plasma, ip, 10 mg/kg, 0.5 h, n = 3, read-out: Plasma Concentration, Mean ± SD
[17] = HEK293 cells, Ca2+ flux, read-out: 5-HT2A EC50
[18] = CHO-K1 cells, Ca2+ flux, read-out: 5-HT2B EC50
[19] = HEK293 cells, Ca2+ flux, read-out: 5-HT2C EC50

T1 sequence (P28223 whole entry): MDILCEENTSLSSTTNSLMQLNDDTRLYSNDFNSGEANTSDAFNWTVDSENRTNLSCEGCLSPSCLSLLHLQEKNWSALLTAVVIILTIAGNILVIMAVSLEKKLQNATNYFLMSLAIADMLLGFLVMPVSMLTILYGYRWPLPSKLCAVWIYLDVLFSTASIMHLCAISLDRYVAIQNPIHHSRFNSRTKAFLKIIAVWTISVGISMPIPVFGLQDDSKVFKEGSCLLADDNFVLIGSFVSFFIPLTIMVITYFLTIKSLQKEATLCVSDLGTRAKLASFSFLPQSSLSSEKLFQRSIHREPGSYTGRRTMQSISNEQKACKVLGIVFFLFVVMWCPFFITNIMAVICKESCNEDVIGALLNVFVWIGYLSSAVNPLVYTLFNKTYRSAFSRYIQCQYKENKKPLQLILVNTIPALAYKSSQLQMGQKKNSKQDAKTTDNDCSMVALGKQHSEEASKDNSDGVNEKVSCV

Compound | Emax ([1]; HEK293 cells, Ca2+ flux) [%] | Emax ([2]; CHO-K1 cells, Ca2+ flux) [%] | Emax ([3]; HEK293 cells, Ca2+ flux) [%] | B:P Ratio, Individual [4, 6] | Plasma Concentration, Individual [4, 6] | concentration at 0.5 h [4, 7] | B:P Ratio, Individual [4, 8] | Plasma Concentration, Individual [4, 8] | concentration at 0.5 h [4, 9] | Brain Parenchyma Concentration, Individual [4, 10] | Plasma Concentration, Individual [4, 10] | concentration at 0.083 h [4, 11] [µM] | concentration at 0.5 h [4, 12] [nM] | Kp at 0.083 h [4, 13] | Kp at 0.5 h [4, 14] | concentration at 0.083 h [4, 15] [µM] | concentration at 0.5 h [4, 16] [nM] | Cmax ([4]; plasma, IP 10 mg/kg) [µM] | Tmax ([4]; plasma, IP 10 mg/kg) [min] | AUC(0-t) ([4]; plasma, IP 10 mg/kg) [µM·h] | further results
COc1ccc2[nH]cc(CCN(C)C)c2n1 [Example P-1, 2-(5-methoxy-1H-pyrrolo[3,2-b]pyridin-3-yl)-N,N-dimethylethan-1-amine] | 47.7 | -1.07 | 74.3 | 0.24 and 0.34 | 4.30 µM and 7.63 µM | 2060 nM and 1040 nM and 2560 nM | 0.30 and 2.3 and 1.0 | 1.03 µM and 0.307 µM and 0.420 µM | 307 nM and 701 nM and 437 nM | <LLQ | <LLQ | 1.89 ± 0.776 | 482 ± 201 | 0.27 | 1.2 ± 1 | 6.53 ± 1.93 | 585 ± 387 | 6.53 | 5 | 1.37 | EC50 [1]: 34.9 nM; EC50 [2]: > 10 µM; EC50 [3]: 18.8 nM; B:P Ratio, Mean ± SD ([4]; 0.083 h, IP 10 mg/kg, n = 3): 0.28 ± 0.048; concentration at 0.083 h ([4]; male, C57BL/6, mouse, plasma, ip, 10 mg/kg, 0.083 h, individual mouse, read-out: Plasma Concentration, Individual): 7.66 µM; Head-twitch response (HTR) [5]: not promoting increased head-twitch response; Tolerability (temperature, locomotor activity) [5]: well-tolerated
COc1nccc2[nH]cc(CCN(C)C)c12 [Example P-5, 2-(4-methoxy-1H-pyrrolo[3,2-c]pyridin-3-yl)-N,N-dimethylethan-1-amine] | 56.2 | -0.87 | 79.1 | 0.19 and 0.16 | 5.88 µM and 1.97 µM and 8.28 µM | 230 nM and 365 nM and 1360 nM | 2.5 and 2.4 | 0.985 µM and 0.776 µM | 2420 nM and 1860 nM | <LLQ | <LLQ | 0.984 ± 0.54 | 1970 ± 414 | 0.21 | 2.3 ± 0.26 | 5.38 ± 3.18 | 859 ± 111 | 5.38 | 5 | 1.63 | EC50 [1, 17]: 24.4 nM; EC50 [2, 18]: > 10 µM; EC50 [3, 19]: 38.4 nM; concentration at 0.5 h ([4]; male, C57BL/6, mouse, brain, ip, 10 mg/kg, 0.5 h, individual mouse, read-out: Brain Parenchyma Concentration, Individual): 1610 nM; Kp at 0.083 h ([4]; male, C57BL/6, mouse, ip, 10 mg/kg, 0.083 h, n = 3, read-out: B:P Ratio, Mean ± SD): 0.19 ± 0.022; Kp at 0.5 h ([4]; male, C57BL/6, mouse, ip, 10 mg/kg, 0.5 h, individual mouse, read-out: B:P Ratio, Individual): 2; concentration at 0.5 h ([4]; male, C57BL/6, mouse, plasma, ip, 10 mg/kg, 0.5 h, individual mouse, read-out: Plasma Concentration, Individual): 815 nM
COc1ccnc2[nH]cc(CCN(C)C)c12 [Example P-4, 2-(4-methoxy-1H-pyrrolo[2,3-b]pyridin-3-yl)-N,N-dimethylethan-1-amine] | 35 | -0.27 | 17.9 |  |  |  |  |  |  |  |  |  |  |  |  |  |  |  |  |  | EC50 [1, 17]: 1230 nM; EC50 [2, 18]: > 10 µM; EC50 [3, 19]: 241 nM; Head-twitch response (HTR) [5]: not promoting increased head-twitch response; Tolerability (temperature, locomotor activity) [5]: well-tolerated

From US20250163044A1, “COMPOUNDS” (PSYLO PTY LTD, priority 2021, published 2025)
